“Also recorded” adds a separate entry of the source.
Key:
Type in all cases: cell-based, human
H4 cells [1] = experiment: Western blot of autophagy markers (LC3, p62); settings: for autophagy by western blot (LC3II accumulation, LC3 II/tubulin): serum-free medium, 100 ng/mL IGF1, 50 ng/mL FGF2, LIF or CLCF1, 10 μg/mL E64d, with or without 50 nM rapamycin, H4, HEK293, HeLa, MCF7
Method: (§1) For the cytokine assays, cells were seeded at 0.5×10^5 in full medium in either 24-well (western) or 96-well (LC3-GFP quantification) plates. After 24 hours, cells were washed in PBS and serum-free OptiMEM medium (Invitrogen) was added along with the indicated growth factors and/or cytokines for an additional 24 hours. Growth factors and cytokines used include human TNFα (Cell Sciences), human LIF (GeneScript Corporation), human FGF2 (ProSpec), human IGF1 (ProSpec), human SDF1 (Prospec) and human CLCF1 (R&D Systems). To induce starvation, cells were cultured for 24 hours in full media, washed in PBS and cultured for additional 4 hours in HBSS bedia (Invitrogen).
For western blot analysis, lysosomal protease inhibitor E64d (Sigma) was added at a concentration of 10 μg/mL for the last 8-12 hours before cell lysis.
(§2) For western blots, cells were lysed in Lammeli sample buffer, resolved on a 10-12% SDS-PAGE gel and transferred to PVDF membrane. The following antibodies were used: LC3 (Novus), p62 (Pharmigen), phospho-S6K (Thr389), phospho-Akt (Ser473), phospho-Stat3 (Tyr705), RelA, Sod1, phospho-PTEN (Ser380/Thr382/383) (all Cell Signaling), Bcl-2 (Santa Cruz), all at 1:1000, phospho-S6 (Ser235/236) (Cell Signaling) and phospho-ERK 1/2 (Sigma) at 1:2000, tubulin (Sigma) at 1:5000. Where indicated, blots were quantified using NIH ImageJ64 software.

H4 cells [2] = experiment: Western blot of signalling protein levels and phosphorylation; settings: for activating phosphorylation of Stat3: 50 ng/mL LIF or CLCF1
Excerpt: as §2

GRP78 and GRP94 = experiment: In-cell-western of KDEL (GRP78/GRP94) expression (ER stress); settings: H4 cells treated with tunicamycin
Method: For quantitative analysis of mTORC1 signaling and induction of endoplasmic reticulum stress, in-cell-western analysis of rpS6 phosphorylation and KDEL (GRP78/GRP94) expression (‘KDEL’ disclosed as SEQ ID NO: 2), respectively, were performed. H4 cells were cultured in 384-well plates and fixed and counterstained as described for the LC3-GFP assay. Following imaging, the cells were permeabilized in PBS containing 0.2% Tx-100 and stained with Alexa-680 NETS-ester, a non-specific lysine reactive probe used to measure relative cell number, at 20 ng/mL for 15 minutes. Subsequently, the cells were washed with PBS containing 0.2% Tx-100 and incubated for 30 minutes in blocking buffer (LiCOR Blocking Buffer diluted 1:1 with PBS+0.2% Tx-100). Cells were then incubated overnight with a rabbit-anti-rpS6 phospho-235/236 (Cell Signaling Technologies), or mouse-anti-KDEL (Stressgen) antibody (‘KDEL’ disclosed as SEQ ID NO: 2) diluted 1:1000 in blocking buffer. […] The intensities of both, the rpS6 phospho-235/236 or KDEL staining (‘KDEL’ disclosed as SEQ ID NO: 2), and of NHS-ester staining were integrated, and the normalized phospho-S6 or KDEL score (‘KDEL’ disclosed as SEQ ID NO: 2) were calculated by dividing phospho-rpS6 or KDEL intensity by NHS-ester intensity (‘KDEL’ disclosed as SEQ ID NO: 2). […]

[3] = tested on: H4 cells stably expressing LC3-GFP; experiment: LC3-GFP autophagosome translocation image-based assay; settings: for autophagy as measured by LC3-GFP translocation: H4 LC3-GFP cells grown in serum-free medium, cytokine 24 hours; for autophagy (autophagosome associated LC3-GFP): H4 LC3-GFP cells in defined medium
Method: (§3) H4 human neuroblastoma cells were cultured under standard tissue culture conditions in DMEM media supplemented with 10% normal calf serum, penicillin/streptomycin, sodium pyruvate (Invitrogen) and, where appropriate, 0.4-1.2 mg/mL G418. LC3-GFP and FYVE-dsRed H4 cells were generated as described in Zhang et al., PNAS, 102, 15545-15550 (2007). To create a stable line expressing Lamp1, H4 cells were transfected with Lamp1-RFP plasmid using TransIT LT1 reagent (Minis), followed by selection with 0.4 mg/mL G418. Bcl-2 expressing cell lines were created by infecting LC3-GFP and FYVE-dsRed H4 cells with pBabe-Bcl-2 retrovirus, followed by selection with […] puromycin.
as §1, with “(Invitrogen). […]” for “(Invitrogen).”
For high-throughput screens, cells were imaged on an automated CellWoRx microscope (Applied Precision) at 10× magnification using 2 wavelengths (350 nm to detect Hoechst, 488 nm to detect LC3-GFP) for the primary screens and 3 wavelengths (350 nm, 488 nm and 550 nm to detect Lamp1-RFP or FYVE-dsRed) for the secondary screens. All images were quantified using VHSscan and VHSview image analysis software (Cellomics). Total cell number, total LC3-GFP intensity/cell as well as number, area and intensity of LC3-GFP positive autophagosomes/cell were scored. All dead and mitotic cells were excluded from analysis based on nuclear intensity. The final autophagy score for each well was obtained by multiplying the total autophagosome intensity/cell by the number of autophagosomes/cell and dividing by the average cell intensity. This formula was empirically determined to accurately measure LC3-GFP translocation from cytosol into autophagosomes as reflected by consistently significant z-scores and p-values when using siRNAs against mTOR and Atg5 controls. FYVE-dsRed and Lamp1-RFP scores were obtained in a manner similar to LC3-GFP scores, except that for Lamp1-RFP, which measures total accumulation of the reporter rather than its translocation, division by the average cell intensity was omitted.
For low-throughput follow-up analysis, cells were grown on glass cover slips. Following fixation in 4% paraformaldehyde and counterstaining with Hoechst, cover slips were mounted in 50% glycerol, 0.1% n-propyl gallate/PBS. Cells were imaged at 40× magnification on a Nikon Eclipse E800 microscope. Cell numbers, cell area and intensity, as well as autophagosome number and intensity, were quantified using Metamorph software. Autophagy was scored as number of autophagosomes per cell.
Human neuroblastoma H4 cells stably expressing the LC3-GFP reporter were used to identify genes involved in the regulation of autophagy in mammals. […] When autophagy is induced in these cells, LC3-GFP is recruited from the cytosol and can be visualized in a punctate pattern corresponding to autophagosomes. In order to validate the system, cells were transfected with siRNA against either the essential autophagy mediator ATG5 or against mTOR, a suppressor of starvation-induced autophagy. Following 72 hours of incubation under normal nutritional conditions, […].

type III PI3 kinase = experiment: FYVE-dsRed reporter assay of PtdIns3P levels
Method: as §3
For secondary screens, a siRNA library was used in which the 4 siRNAs of each siRNA pool were separated into individual wells. […]
For high-throughput screens, cells were imaged on an automated CellWoRx microscope (Applied Precision) at 10× magnification using 2 wavelengths (350 nm to detect Hoechst, 488 nm to detect LC3-GFP) for the primary screens and 3 wavelengths (350 nm, 488 nm and 550 nm to detect Lamp1-RFP or FYVE-dsRed) for the secondary screens. All images were quantified using VHSscan and VHSview image analysis software (Cellomics). Total cell number, total LC3-GFP intensity/cell as well as number, area and intensity of LC3-GFP positive autophagosomes/cell were scored. […]

[4] = 100 ng/mL IGF1 plus Akt inhibitor VIII

For `O=c1[nH]c2ccccc2n1C1CCN(Cc2ccc(-c3nc4cc5[nH]cnc5cc4nc3-c3ccccc3)cc2)CC1` [Akt inhibitor VIII, reference compound], the “effect on inhibition of autophagy by IGF1” value (H4 cells [1]; [4]) was “prevented inhibition of autophagy” and the “phosphorylation of Foxo3a and S6 kinase” value (H4 cells [2]; [4]) was “attenuated phosphorylation”.

For tunicamycin [reference compound], the “levels of GRP78 and GRP94” value (GRP78 and GRP94) was “dose-dependent up-regulation” and the autophagy ([3]; H4 cells treated with tunicamycin) was “increase in autophagy”.

For “SDF1: human SDF1 (Prospec); chemokine SDF1 (CXCL12)”, the “autophagy as measured by LC3-GFP translocation” value (“autophagy as measured” for short) [3] was “significant down-regulation of autophagy”.

In the case of “LIF: human LIF (GeneScript Corporation); leukemia inhibitory factor”, the “autophagy by western blot (LC3II accumulation, LC3 II/tubulin)” value (“autophagy by western blot” below) (H4 cells [1]) is reported as “suppress autophagy in the absence and presence of rapamycin”, the “autophagy as measured” value [3] is reported as “significant down-regulation of autophagy” and the “activating phosphorylation of Stat3” value (H4 cells [2]) is reported as “increased activating phosphorylation of Stat3”.

With `N#CC(=C(/N)Sc1ccccc1N)/C(C#N)=C(/N)Sc1ccccc1N` [UO126, reference compound] the “effect on inhibition of autophagy by FGF2 (LC3 western)” value (H4 cells [1]; H4 cells, serum-free media, 50 ng/mL FGF2, 10 μg/mL E64d, UO126 pre-treatment) was “attenuated inhibition of autophagy; also recorded: prevented”.

In the case of `CC(=O)N[C@@H](CS)C(=O)O` [NAC, N-acetyl-L-cysteine, reference compound], the “effect on induction of autophagy caused by knock-down of Sod1” value ([3]; H4 LC3-GFP cells, 2.5 mM NAC) is reported as “significantly attenuated”, the “effect on elevated induction of autophagy in response to starvation” value ([3]; RelA deficient H4 cells, 2.5 mM NAC) is reported as “attenuated” and the “effect on Aβ-induced accumulation of PtdIns3P” value (type III PI3 kinase; with antioxidant NAC) is reported as “suppressed”.

With “FGF2: human FGF2 (ProSpec); fibroblast growth factor 2 (basic)” the “autophagy by western blot” value (H4 cells [1]) was “suppress autophagy in the absence and presence of rapamycin”, the “autophagy as measured” value [3] was “significant down-regulation of autophagy” and the “level of phospho-ERK1/2 and phospho-RSK” value (H4 cells [2]; H4 cells, serum-free media, 50 ng/mL FGF2) was “increased level”.

With TNFα the “p62 level by western blot” value (H4 cells [1]; low levels of TNFα (5 ng/ml), nutrient deprivation) was “significant accumulation of p62”, the “autophagy (autophagosome associated LC3-GFP)” value ([3]; higher doses of TNFα) was “up-regulation of autophagy” and the “autophagy (autophagosome associated LC3-GFP)” value ([3]; low doses of TNFα) was “down-regulation of autophagy”.

With “IGF1: human IGF1 (ProSpec); insulin-like growth factor 1” the “autophagy by western blot” value (H4 cells [1]) was “suppress autophagy in the absence and presence of rapamycin”, the “autophagy as measured” value [3] was “significant down-regulation of autophagy” and the “phosphorylation of Akt and Foxo3a” value (H4 cells [2]; IGF-1 treatment, absence and presence of rapamycin) was “increased”.

In the case of `Cn1cnc(=N)c2[nH]cnc21` [3MA, reference compound], the “effect on induction of autophagy in response to Aβ” value ([3]; H4 GFP-LC3 cells, 3MA) is reported as “attenuate induction of autophagy” and the “effect on Aβ-induced accumulation of PtdIns3P” value (type III PI3 kinase; 3MA 10 mM, 8 hours prior to fixation) is reported as “suppressed”.

B1: CLCF1: human CLCF1 (R&D Systems); cardiotrophin-like cytokine factor 1 (protein, UniProt Q9UBD9 28-225, looked up)
Cardiotrophin-like cytokine …: LNRTGDPGPGPSIQKTYDLTRYLEHQLRSLAGTYLNYLGPPFNEPDFNPPRLGAETLPRATVDLEVWRSLNDKLRLTQNYEAYSHLLCYLRGLNRQAATAELRRSLAHFCTSLQGLLGSIAGVMAALGYPLPQPLPGTEPTWTPGPAHSDFLQKMDDFWLLKELQTWLWRSAKDFNRLKKKMQPPAAAVTLHLGAHGF
With B1 the “autophagy by western blot” value (H4 cells [1]) was “suppress autophagy in the absence and presence of rapamycin”, the “autophagy as measured” value [3] was “significant down-regulation of autophagy” and the “activating phosphorylation of Stat3” value (H4 cells [2]) was “increased activating phosphorylation of Stat3”.

Source: US20160194631A1, “Methods for Modulation of Autophagy Through the Modulation of Autophagy-Inhibiting Gene Products” (Harvard Medical School, priority 2009, published 2016)
